The values below are quoted from earlier work in patent publication US20070185065A1, “Combination therapy for coronary artery disease” (priority 2006, published 2007).

In series [1] the test system is patients with atherosclerosis not limited to MI. The note with it: compared to aspirin, three year period.
Series [2] concerns patients with known CHD and an HDL-C concentration below 45 mg/dL already receiving a statin.
The subject of series [3] is proinflammatory cytokines and C-reactive protein (CRP). As to conditions: six weeks of therapy.
In series [4] the test system is asymptomatic patients with an LVEF 40 percent after MI. As to conditions: mean follow-up of 42 months.
Series [5] concerns patients with systolic left ventricular dysfunction (SLVD) post-MI.
Series [6] has as its system patients with chronic stable angina. The note with it: six weeks therapy, metoprolol 200 mg daily.
The test system of series [7] is patients with clinical evidence of HF post-MI.
In series [8] the test system is patients who have had an acute MI. The note with it: 160 mg twice daily.

Read-outs that look alike come from different tables or passages of the source.

With `COC(=O)[C@H](c1ccccc1Cl)N1CCc2sccc2C1` [Clopidogrel, clopidogrel], the “fatal or nonfatal MI” value in series [1] is reported as “significant reduction”.

As for `O=C(O)c1cccnc1` [ER niacin, niacin], the “mean increase in HDL-C” value in series [2] (1000 mg daily, on top of a statin) is given as 21%. The HDL-C on treatment was 1.22 mmol/L in series [2] (1000 mg daily, 1.0 mmol/L at baseline) and 47 mg/dL in series [2] (1000 mg daily, 39 mg/dL at baseline). The “cardiovascular events, percent of patients” value in series [2] (9.6 percent with placebo, p=0.20) was 3.8%. Further, in series [2] (after one year of therapy, ultrasound, p=0.23, placebo 0.044 mm), the “increase in mean carotid intima-media thickness (CIMT)” value is 0.014 mm.

In the case of `CC(=O)Oc1ccccc1C(=O)O` [aspirin], in series [3], the “markers of inflammation (proinflammatory cytokines and CRP)” value is given as “significantly reduced”.

What is called mortality is the share of the test organisms that died. As for `C[C@H](CS)C(=O)N1CCC[C@H]1C(=O)O` [captopril], in series [4], the “reduction in hospitalization for HF” value is recorded as 22%, the “reduction in the incidence of recurrent MI” value is 25% and the “reduction in the incidence of severe HF” value is reported as 37%. For the same compound, in series [4] (versus placebo, 95% CI 3 to 32 percent), the decrease in mortality is on record as 19%. Moreover, in series [4] (25 percent for placebo), the mortality is 20%.

For `COC(=O)[C@@H]1CC2=CC(=O)CC[C@]2(C)[C@@]23O[C@@H]2C[C@@]2(C)[C@@H](CC[C@@]24CCC(=O)O4)[C@H]13` [eplerenone], in series [5] (added to standard therapy), the “reduction in combined primary endpoint of CV mortality and CV hospitalization” value is reported as 13%. Moreover, the “reduction in CV mortality” value in series [5] (added to standard therapy, P=0.005) was 17%. The “reduction in all-cause mortality” value in series [5] (added to standard therapy, P=0.008) is 15%. In addition, the “further reduction in mortality” value in series [5] (subgroup already receiving ACE inhibitors and beta-blockers) was 27%.

In the case of `COCCc1ccc(OCC(O)CNC(C)C)cc1` (centres unmarked) [metoprolol], the “increase in mean exercise time to 1-mm ST segment depression” value in series [6] (long-acting preparations, nifedipine 20 mg BID) is 70 s. Besides, the frequency of angina entry in series [6] was “reduced the frequency of angina”.

With `CCOC(=O)[C@H](CCc1ccccc1)N[C@@H](C)C(=O)N1[C@H](C(=O)O)C[C@@H]2CCC[C@@H]21` [ramipril], the mortality is 28% in series [7] (603 United Kingdom patients followed for a mean of 59 months, 39 percent placebo) and 17% in series [7] (average of 15 months follow-up, 23 percent with placebo). In addition, in series [7] (average of 15 months follow-up), the “reduction in sudden death” value is recorded as 30%. In series [7] (average of 15 months follow-up), the “reduction in the incidence of severe, resistant HF” value is reported as 23%. In series [7] (average of 15 months follow-up, versus placebo, 95% CI 11 to 40 percent), the decrease in mortality is 27%. In addition, in series [7] (average of 15 months follow-up, 18 percent for placebo), the “incidence of severe, resistant HF” value is on record as 14%. The “relative risk reduction (mortality)” value in series [7] (mean of 59 months, 95% CI 15 to 52 percent) was 36%.

Consider `CCCCC(=O)N(Cc1ccc(-c2ccccc2-c2nnn[nH]2)cc1)[C@H](C(=O)O)C(C)C` [valsartan], for which the “reduction in mortality after an MI compared to an ACE inhibitor” value in series [8] is reported as “as effective as an ACE inhibitor”.
